The record followed here is patent US7132546B2, “Aniline derivatives or salts thereof and cytokine production inhibitors containing the same” (Ishihara Sangyo Kaisha, Ltd., priority 2000, dated 2006).

Data set [1] concerns interferon γ (IFN-γ) production. Description: Cytokine production inhibitory effect: IFN-γ production by murine spleen cells treated with anti-mouse CD3 antibody and IL-2 (ELISA). It counts as cell-based, Balb/c mice. The following applies: anti-CD3 antibody + IL-2, 40 to 48 hours, read-out: IFN-γ production inhibitory ratio (%); for inhibition at 100 ppm: test compound 100 ppm. On the procedure:
(§1) Murine spleen cells were treated with anti-mouse CD3 antibody and IL-2 to induce cytokine production. The test compounds were added to the cytokine production system to evaluate their inhibitory effect. Namely, anti-mouse CD3 antibody adjusted to from 10 to 20 μg/ml with borate buffered physiological saline (pH 8.5) was pipetted into a 96-well cell culture plate in an amount of 50 μl/well and left to stand at 4° C. for 18 hours. The unreacted solution was removed, washing with Hank's buffer solution was carried out once, and IL-2 adjusted to 10 ng/ml with a RPMI liquid containing 10% fetal bovine serum (FCS) was pipetted in an amount of 50 μl/well. For the negative control group, a solution alone without anti-CD3 antibody nor IL-2 was applied. Then, the diluted solution of each of the test compounds (concentration: 100 ppm unless otherwise specified) was pipetted in an amount of 50 μl/well, and a cell suspension of 1×10^7 cells/ml, prepared from spleen of Balb/c mice (female, 7 to 10 week old) was pipetted thereinto in an amount of 100 μl/well. After cultivation in an incubator (37° C., 5% carbon dioxide gas) for from 40 to 48 hours, the culture supernatant was recovered to measure the cytokine production amount by ELISA method.
(§2) With respect to interleukin 5 (IL-5) as a typical Th2 type cytokine and interferon γ (IFN-γ) as a typical Th1 type cytokine, measurements were carried out by the following methods, respectively. Namely, quantitative determination of IL-5 was carried out by the following ELISA method. First, rat anti-mouse IL-5 antibody (Endogen Code No. MM-550C) as a primary antibody was diluted with carbonate buffer solution (pH 9.5) to 1 μg/ml, and spread in a 96 well plate (IWAKI, Code No. 3860-096) in an amount of 50 μl/well for coating at 4° C. overnight (16 to 24 hours). Then, the plate was subjected to blocking at 37° C. for 2 hours by phosphate buffered physiological saline containing 10% FCS (pH 7.2) (blocking buffer solution) (250 μl/well). The plate was washed with PBS (washing buffer) containing 0.05% Tween 20 (Nacalai Tesque, Code No. 281-51) four times, and a diluted liquid of the culture supernatant was spread in an amount of 50 μl/well, followed by incubation at room temperature for 1 hour. For preparation of a standard line, recombinant mouse IL-5 (R&D systems, Code No. 405-ML) was employed. The plate was washed with a washing buffer four times, and biotin-labeled rat anti-mouse IL-5 antibody (Pharmingen, Code No. 18062D) as a secondary antibody diluted to 0.5 μg/ml with a blocking buffer containing 0.05% Tween 20 was added thereto (50 μl/well), followed by incubation at room temperature for 1 hour. The plate was washed with a washing buffer four times, strept avidin-labeled peroxidase (ProZyme, Code No. CJ30H001) diluted 800 times with a blocking buffer containing 0.05% Tween 20 was added thereto (50 μl/well), followed by reaction at room temperature for 15 minutes. The plate was washed with a washing buffer four times, and a […] substrate solution (SIGMA, Code No. T-8665) was added thereto in an amount of 100 μl/well for color developing for from 10 to 20 minutes. A 1M sulfuric acid solution was added thereto in an amount of 100 μl/well to terminate the reaction, and absorption (wavelength 450 nm) was measured by means of micro plate reader (SPECTRA max, Wako Pure Chemicals Industries, Ltd.). Quantitative determination of IFN-γ was carried out in the same manner as the measurement of IL-5, employing rat anti-mouse IFN-γ antibody (Pharmingen, Code No. 18181D) and biotin labeled rat anti-mouse IFN-γ antibody (Pharmingen, Code NO. 18112D), as a primary antibody and a secondary antibody, respectively. For preparation of a standard line, recombinant mouse IFN-γ (GENZYME, Code No. 3485) was employed. The experiment was carried out in duplicate, and the average of the cytokine production amount was obtained. […]

Data set [2] concerns interleukin 5 (IL-5) production. Description: Cytokine production inhibitory effect: IL-5 production by murine spleen cells treated with anti-mouse CD3 antibody and IL-2 (ELISA). It counts as cell-based, Balb/c mice. The following applies: anti-CD3 antibody + IL-2, 40 to 48 hours, read-out: IL-5 production inhibitory ratio (%); for inhibition at 100 ppm: test compound 100 ppm. On the procedure:
as §1, §2

As to `Cc1cc(C23CC4CC(CC(C4)C2)C3)ccc1NC(=O)c1cc([N+](=O)[O-])ccc1Cl` [Compound No. 1], the melting point is 219 °C. Moreover, the inhibition at 100 ppm in data set [1] was determined as 90%. In addition, the inhibition at 100 ppm in data set [2] stood at 96%.
As to `Cc1cc(-c2nc3ccccc3s2)ccc1NC(=O)c1cc([N+](=O)[O-])ccc1Cl` [Compound No. 2], the melting point lay within 220 to 226 °C. Also, in data set [1] (test compound 2 ppm), the inhibition at 2 ppm worked out at 84%. Moreover, the inhibition at 2 ppm in data set [2] (test compound 2 ppm) was 74%.
In the case of `COc1ccc([N+](=O)[O-])c(OC)c1C(=O)Nc1cc(Cl)cc(Cl)c1` [Compound No. 4], the melting point was 173 °C. The inhibition at 100 ppm in data set [1] worked out at 76%. Also, in data set [2], the inhibition at 100 ppm came out at 47%.
`COc1cccc(C(=O)Nc2ccc(Oc3ccc(C(F)(F)F)cn3)c(Cl)c2)c1` [Compound No. 10] displayed a melting point of 103 to 105 °C. Besides, the inhibition at 100 ppm in data set [1] was 100%. Moreover, in data set [2], the inhibition at 100 ppm came to 100%.
Regarding `O=C(Nc1ccc(Oc2ccc(C(F)(F)F)cn2)c(Cl)c1)c1ccc(F)cc1` [Compound No. 12], the melting point fell in the range of 174 to 176 °C. The inhibition at 100 ppm in data set [2] came to 33%.
For `O=C(Nc1ccc(Oc2ccc(C(F)(F)F)cn2)c(Cl)c1)c1ccccc1F` [Compound No. 13], in that order: 141 to 143 °C and 36%.
Regarding `O=C(Nc1ccc(Oc2ccccc2)cc1)c1cc([N+](=O)[O-])ccc1Cl` [Compound No. 27, N-(4-phenoxyphenyl)-2-chloro-5-nitrobenzamide], the melting point was found to be 128 °C. Moreover, in data set [1], the inhibition at 100 ppm amounted to 99%. For the same compound, the inhibition at 100 ppm in data set [2] stood at 96%.
For `Cc1cc(C23CC4CC(CC(C4)C2)C3)ccc1NC(=O)c1cc([N+](=O)[O-])ccc1Br` [Compound No. 46, N-(4-(1-adamantyl)-2-methylphenyl)-2-bromo-5-nitrobenzamide], in that order: 229 °C, 98% and 100%.
Taken in the same sequence, the figures for `Cc1cc(C23CC4CC(CC(C4)C2)C3)ccc1NS(=O)(=O)c1cc([N+](=O)[O-])ccc1Cl` [Compound No. 48, N-(4-(1-adamantyl)-2-methylphenyl)-2-chloro-5-nitrobenzenesulfonamide] were 238 °C, 100% and 100%.
For `Cc1cc(NC(=O)c2cc([N+](=O)[O-])ccc2Cl)ccc1Oc1ncc(C(F)(F)F)cc1Cl` [Compound No. 106, N-(4-(3-chloro-5-trifluoromethyl-2-pyridyloxy)-3-methylphenyl)-2-chloro-5-nitrobenzamide], in that order: 230 to 232 °C, 96% and 83%.
In the case of `O=C(Nc1ccc(OC23CC4CC(CC(C4)C2)C3)nc1)c1cc([N+](=O)[O-])ccc1Cl` [Compound No. 123, N-(2-(1-adamantyloxy)-5-pyridyl)-2-chloro-5-nitrobenzamide], the melting point is 98 to 105 °C. For the same compound, the inhibition at 100 ppm in data set [1] was determined as 100%. Further, the inhibition at 100 ppm in data set [2] was determined as 100%.
In turn, `O=C(Nc1ccc(Oc2ncc(C(F)(F)F)cc2Cl)c(-n2cccc2)c1)c1cc([N+](=O)[O-])ccc1Cl` [Compound No. 127, N-(4-(3-chloro-5-trifluoromethyl-2-pyridyloxy)-3-(1-pyrrolyl)phenyl)-2-chloro-5-nitrobenzamide] returned a melting point of 165 to 167 °C. Further, the inhibition at 100 ppm in data set [1] stood at 100%. Moreover, in data set [2], the inhibition at 100 ppm is 100%.
`O=C(Nc1ccc(Oc2ccc(C(F)(F)F)cn2)c(Cl)c1)c1ccc(F)cc1F` [compound 11]: the melting point lay in the range of 145 to 147 °C. Further, in data set [2], the inhibition at 100 ppm was determined as 37%.
Taken in the same sequence, the figures for `O=C(Nc1ccc(Oc2ccc(C(F)(F)F)cn2)c(Cl)c1)c1ccccc1` [compound 14] were 170 to 172 °C and 46%.
Taken in the same sequence, the figures for `O=C(Nc1ccc(Oc2ccc(C(F)(F)F)cn2)c(Cl)c1)c1cc(Cl)cc(Cl)c1O` [compound 16] were 176 to 178 °C and 100%.
In the case of `Cc1ccccc1NC(=O)c1cc([N+](=O)[O-])ccc1Cl` [compound 19], the inhibition at 100 ppm is 88% in data set [1] and 96% in data set [2].
`Cc1cc(C23CC4CC(CC(C4)C2)C3)ccc1NS(=O)(=O)c1cc(Cl)ccc1Cl` [compound 24]: the melting point worked out at 200 °C. Further, the inhibition at 100 ppm in data set [2] was determined as 100%.
As to `O=C(Nc1ccccc1C(F)(F)F)c1cc([N+](=O)[O-])ccc1Cl` [compound 39], the inhibition at 100 ppm in data set [1] is 100%; in data set [2], 97%.
Turning to `O=C(Nc1ccc(Nc2ccccc2)cc1)c1cc([N+](=O)[O-])ccc1Cl` [compound 65], the inhibition at 100 ppm in data set [1] and in data set [2] was 100% each time.
As for `O=C(Nc1ccc(Oc2ccc(C(F)(F)F)cn2)c(Cl)c1)c1ccccc1Cl` [compound 71], the melting point is 168 to 169 °C. Further, the inhibition at 100 ppm in data set [2] was 89%.
For `O=C(Nc1ccc(Oc2ccc(C(F)(F)F)cn2)c(Cl)c1)c1ccc(Oc2ccc(C(F)(F)F)cn2)c(Cl)c1` [compound 72], in that order: 206 to 209 °C and 51%.
As to `O=C(Nc1ccc(Oc2ccc(C(F)(F)F)cc2Cl)cc1)c1cc([N+](=O)[O-])ccc1F` [compound 95], the inhibition at 100 ppm in data set [1] and in data set [2] was 100% throughout.
On to `Cc1cc(C23CC4CC(CC(C4)C2)C3)ccc1N(C)C(=O)c1cc([N+](=O)[O-])ccc1Cl` [compound 102], for which the inhibition at 100 ppm in data set [1] and in data set [2] was 100% throughout.
For `O=C(Nc1ccc([S+]([O-])c2ncc(C(F)(F)F)cc2Cl)cc1)c1cc([N+](=O)[O-])ccc1Cl` (stereo not drawn) [compound 103], the inhibition at 100 ppm in data set [1] and in data set [2] was 100% throughout.
For `O=C(Nc1ccc(S(=O)(=O)c2ncc(C(F)(F)F)cc2Cl)cc1)c1cc([N+](=O)[O-])ccc1Cl` [compound 104], the inhibition at 100 ppm in data set [1] and in data set [2] was 100% each time.
For the compound `O=C(Nc1ccc(Oc2ncc(C(F)(F)F)cc2Cl)c([N+](=O)[O-])c1)c1cc([N+](=O)[O-])ccc1Cl` [compound 108], the melting point is 233 to 236 °C.
As to `O=C(Nc1ccc(Oc2ncc(C(F)(F)F)cc2Cl)c(C2CCCCC2)c1)c1cc([N+](=O)[O-])ccc1Cl` [compound 114], the inhibition at 100 ppm in data set [1] and in data set [2] was 100% throughout.
Take `O=C(Nc1ccc(OC2C3CC4CC(C3)CC2C4)nc1)c1cc([N+](=O)[O-])ccc1Cl` (stereo not drawn) [compound 124]: the inhibition at 100 ppm in data set [1] and in data set [2] was 100% each time.
Turning to `O=C(Nc1ccc(OC23CC4CC(CC(C4)C2)C3)cc1)c1cc([N+](=O)[O-])ccc1Cl` [compound 134], the inhibition at 100 ppm in data set [1] was 98%; in data set [2], 97%.
For `O=C(Nc1ccc(NC23CC4CC(CC(C4)C2)C3)nc1)c1cc([N+](=O)[O-])ccc1Cl` [compound 147], in that order: 100% and 99%.
